According to publication PMC11952222, “Development and comparison of single FLT3-inhibitors to dual FLT3/TAF1-inhibitors as an anti-leukemic approach” (PLOS One, 2025):
pIC50: −log10 of the molar value. Where “and” joins values, the source holds several entries; their conditions need not be identical. Equal entries are not always repeated. Where two headings read alike, the source gives them in different places.

Assays:
FLT3 [1] = target: T1, FLT3 (Homo sapiens, UniProt P36888); assay: Eurofins/DiscoverX KdELECT, FLT3 kinase IC50; assay type: binding; settings: 11-point 3-fold dilution, top concentration 10,000 nM
T1 construct: purchased Eurofins/DiscoverX
T1 sequence (P36888 27-993): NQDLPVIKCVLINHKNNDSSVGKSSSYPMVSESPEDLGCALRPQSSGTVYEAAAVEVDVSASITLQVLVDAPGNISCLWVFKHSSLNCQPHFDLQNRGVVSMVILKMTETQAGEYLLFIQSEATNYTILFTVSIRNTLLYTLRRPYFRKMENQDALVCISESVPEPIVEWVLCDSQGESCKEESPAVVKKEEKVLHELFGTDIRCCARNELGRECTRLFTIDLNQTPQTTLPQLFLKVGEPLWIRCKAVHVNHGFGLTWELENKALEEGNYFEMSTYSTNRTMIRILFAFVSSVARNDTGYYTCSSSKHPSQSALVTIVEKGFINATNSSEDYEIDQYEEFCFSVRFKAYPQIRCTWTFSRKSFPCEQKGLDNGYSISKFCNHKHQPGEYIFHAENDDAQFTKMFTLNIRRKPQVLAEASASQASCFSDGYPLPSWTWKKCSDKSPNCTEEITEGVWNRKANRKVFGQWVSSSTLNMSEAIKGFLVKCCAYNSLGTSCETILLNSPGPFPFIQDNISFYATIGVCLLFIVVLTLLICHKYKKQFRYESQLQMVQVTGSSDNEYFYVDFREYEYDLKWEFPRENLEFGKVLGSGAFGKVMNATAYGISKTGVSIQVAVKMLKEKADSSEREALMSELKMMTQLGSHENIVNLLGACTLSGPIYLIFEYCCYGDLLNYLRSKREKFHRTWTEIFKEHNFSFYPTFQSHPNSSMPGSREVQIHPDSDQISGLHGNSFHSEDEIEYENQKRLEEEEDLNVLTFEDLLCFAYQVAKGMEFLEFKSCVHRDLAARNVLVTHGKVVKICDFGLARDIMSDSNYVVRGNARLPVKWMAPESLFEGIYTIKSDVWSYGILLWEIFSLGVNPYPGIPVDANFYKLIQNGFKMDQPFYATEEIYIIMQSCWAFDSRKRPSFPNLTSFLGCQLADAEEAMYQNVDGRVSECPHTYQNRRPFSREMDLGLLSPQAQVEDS
Description: (§1) The 3i-compounds underwent activity testing against a panel of 32 bromodomains using the Eurofins/DiscoverX bromoMAX assay, with specific focus on TAF1(2) bromodomain assessed by the KdELECT assay. In a similar manner, kinase activity was evaluated using a panel of 97 kinase proteins using the Eurofins/DiscoverX scanELECT and KdELECT assays, with specific focus on FLT3 protein. An 11-point 3-fold serial dilution of each test compound was prepared in 100% DMSO at 100x final test concentration and subsequently diluted to final concentration (DMSO 1%). […] Percent control was calculated using the following formula: ((test compound signal – positive control signal)/ (negative control signal – positive control signal)) × 100.

TAF1(2) bromodomain = target: T2, TAF1(2) bromodomain (Homo sapiens, UniProt P21675); assay: Eurofins/DiscoverX KdELECT, TAF1(2) bromodomain IC50; assay type: binding; settings: 11-point 3-fold dilution, top concentration 10,000 nM
T2 construct: with specific focus on TAF1(2) bromodomain assessed by the KdELECT assay; purchased Eurofins/DiscoverX
T2 sequence (P21675 1519-1628 limits assumed): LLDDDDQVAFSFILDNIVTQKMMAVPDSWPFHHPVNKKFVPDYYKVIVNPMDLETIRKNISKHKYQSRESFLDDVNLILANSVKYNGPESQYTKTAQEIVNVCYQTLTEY
Description: as §1

TAF1(2) = target: T3, TAF1(2) (Homo sapiens, UniProt P21675); assay: Eurofins/DiscoverX cell free bromodomain assay, percent control; assay type: binding; settings: for per_control_1000nM TAF1(2): 1000 nM compound; for per_control_10000nM TAF1(2): 10000 nM compound
T3 construct: with specific focus on TAF1(2) bromodomain assessed by the KdELECT assay; purchased Eurofins/DiscoverX
T3 sequence (P21675 1519-1628 limits assumed): T2 sequence (P21675 1519-1628 limits assumed)
Description: as §1

FLT3 [2] = target: T1, FLT3; assay: Eurofins/DiscoverX cell free kinase assay, percent control; assay type: binding; settings: for per_control_1000nM FLT3: 1000 nM compound; for per_control_10000nM FLT3: 10000 nM compound
Description: as §1
(§2) Fig 2 Results of 3i-compound series at concentrations of 1 µM and 10 µM in a cell free Eurofins/DiscoverX assay for kinase and bromodomain proteins. (A) Single-targeted compounds with tyrosine kinase activity but without bromodomain activity. (B) Dual-targeted compounds with both tyrosine kinase and bromodomain activity.

FLT3(ITD) = assay: as above; assay type: binding; settings: for per_control_1000nM FLT3(ITD): 1000 nM compound; for per_control_10000nM FLT3(ITD): 10000 nM compound
Description: as §1, §2

FLT3(ITD,D835V) = assay: as above; assay type: binding; settings: for per_control_1000nM FLT3(ITD,D835V): 1000 nM compound; for per_control_10000nM FLT3(ITD,D835V): 10000 nM compound
Description: as §1, §2

FLT3(ITD,F691L) = assay: as above; assay type: binding; settings: for per_control_1000nM FLT3(ITD,F691L): 1000 nM compound; for per_control_10000nM FLT3(ITD,F691L): 10000 nM compound
Description: as §1, §2

KIT = target: T4, KIT (Homo sapiens, UniProt P10721); assay: as above; assay type: binding; settings: for per_control_1000nM KIT: 1000 nM compound; for per_control_10000nM KIT: 10000 nM compound
T4 construct: purchased Eurofins/DiscoverX
Description: as §1, §2

PDGFRB = target: T5, PDGFRB (Homo sapiens, UniProt P09619); assay: as above; assay type: binding; settings: for per_control_1000nM PDGFRB: 1000 nM compound; for per_control_10000nM PDGFRB: 10000 nM compound
T5 construct: purchased Eurofins/DiscoverX
Description: as §1, §2

DU4475 cells = assay: Cell viability, CellTiter Glo, DU4475; assay type: cell-based; settings: for pIC50: 72h; for CTG normalized_to_DMSO: fraction relative to DMSO
Description: (§3) Drug sensitivity and resistance testing in MOLM13, DU4475, HDQP1, and IGROV1 cells was conducted at the Finnish Institute for Molecular Medicine (FIMM), University of Helsinki. In brief, the effects of compounds on cell viability and cell death were quantified with Cell-Titer Glo (Promega) and CellTox Green (Promega), respectively. Compounds or vehicle control were included in cell culture medium at described concentrations for 72h using an automated liquid dispenser in 384-well format. For KASUMI-1 experiments, cells were grown in 96-well plates and similarly incubated with compounds at indicated concentrations for 72h in RPMI + 10% FCS + Gentamicin, followed by lysis and quantification of cell viability with Cell-Titer Glo (Promega).
(§4) Raw values from viability and toxicity assays were normalized to DMSO and plotted to heat maps in R using pheatmap (RRID:SCR_016418). Dose-response curves were generated using the drc package in R [40]. In brief, nonlinear modelling was performed to calculate IC50 values for each compound where possible and resulting curves from drc and experimental values were plotted using ggplot2 (RRID:SCR_014601).

IGROV1 cells = assay: Cell viability, CellTiter Glo, IGROV1; assay type: cell-based
Description: as §3, §4

HDQP1 cells = assay: Cell viability, CellTiter Glo, HDQP1; assay type: cell-based; settings: 72h, one independent experiment per value; read-out: HDQP1 IC50, individual dose-response curve (CellTiter Glo)
Description: as §3, §4

[3] = one independent experiment per value, read-out: DU4475 IC50, individual dose-response curve (CellTiter Glo)
[4] = 72h, one independent experiment per value, read-out: IGROV1 IC50, individual dose-response curve (CellTiter Glo)

T5 sequence (P09619 33-1106): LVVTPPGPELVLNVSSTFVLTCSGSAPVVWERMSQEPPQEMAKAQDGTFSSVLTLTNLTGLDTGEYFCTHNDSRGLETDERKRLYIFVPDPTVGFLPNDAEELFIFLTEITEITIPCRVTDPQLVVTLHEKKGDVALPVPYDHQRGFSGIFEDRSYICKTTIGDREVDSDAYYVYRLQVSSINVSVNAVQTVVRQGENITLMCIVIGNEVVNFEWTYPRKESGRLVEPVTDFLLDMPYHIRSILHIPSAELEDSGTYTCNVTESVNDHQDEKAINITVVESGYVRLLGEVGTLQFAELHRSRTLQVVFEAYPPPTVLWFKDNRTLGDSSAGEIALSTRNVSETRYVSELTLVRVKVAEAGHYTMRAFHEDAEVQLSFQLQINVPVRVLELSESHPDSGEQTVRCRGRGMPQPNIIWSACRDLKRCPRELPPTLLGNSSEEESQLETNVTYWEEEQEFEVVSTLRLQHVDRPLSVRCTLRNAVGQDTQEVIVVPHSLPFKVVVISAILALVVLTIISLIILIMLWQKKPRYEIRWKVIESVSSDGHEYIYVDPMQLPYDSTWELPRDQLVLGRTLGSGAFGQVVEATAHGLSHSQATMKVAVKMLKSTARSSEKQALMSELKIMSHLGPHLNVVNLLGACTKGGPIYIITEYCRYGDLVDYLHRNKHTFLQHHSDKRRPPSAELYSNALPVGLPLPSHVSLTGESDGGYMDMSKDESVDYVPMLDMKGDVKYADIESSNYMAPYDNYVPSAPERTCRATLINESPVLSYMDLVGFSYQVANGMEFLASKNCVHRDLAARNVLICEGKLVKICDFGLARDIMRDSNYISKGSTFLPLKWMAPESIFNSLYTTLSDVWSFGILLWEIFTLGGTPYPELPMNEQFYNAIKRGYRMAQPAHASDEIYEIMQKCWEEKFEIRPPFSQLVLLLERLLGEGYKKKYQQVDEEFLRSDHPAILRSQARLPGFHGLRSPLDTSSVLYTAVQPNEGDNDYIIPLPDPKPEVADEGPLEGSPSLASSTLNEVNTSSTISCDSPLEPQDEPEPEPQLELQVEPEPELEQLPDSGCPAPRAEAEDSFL
T4 sequence (P10721 26-976): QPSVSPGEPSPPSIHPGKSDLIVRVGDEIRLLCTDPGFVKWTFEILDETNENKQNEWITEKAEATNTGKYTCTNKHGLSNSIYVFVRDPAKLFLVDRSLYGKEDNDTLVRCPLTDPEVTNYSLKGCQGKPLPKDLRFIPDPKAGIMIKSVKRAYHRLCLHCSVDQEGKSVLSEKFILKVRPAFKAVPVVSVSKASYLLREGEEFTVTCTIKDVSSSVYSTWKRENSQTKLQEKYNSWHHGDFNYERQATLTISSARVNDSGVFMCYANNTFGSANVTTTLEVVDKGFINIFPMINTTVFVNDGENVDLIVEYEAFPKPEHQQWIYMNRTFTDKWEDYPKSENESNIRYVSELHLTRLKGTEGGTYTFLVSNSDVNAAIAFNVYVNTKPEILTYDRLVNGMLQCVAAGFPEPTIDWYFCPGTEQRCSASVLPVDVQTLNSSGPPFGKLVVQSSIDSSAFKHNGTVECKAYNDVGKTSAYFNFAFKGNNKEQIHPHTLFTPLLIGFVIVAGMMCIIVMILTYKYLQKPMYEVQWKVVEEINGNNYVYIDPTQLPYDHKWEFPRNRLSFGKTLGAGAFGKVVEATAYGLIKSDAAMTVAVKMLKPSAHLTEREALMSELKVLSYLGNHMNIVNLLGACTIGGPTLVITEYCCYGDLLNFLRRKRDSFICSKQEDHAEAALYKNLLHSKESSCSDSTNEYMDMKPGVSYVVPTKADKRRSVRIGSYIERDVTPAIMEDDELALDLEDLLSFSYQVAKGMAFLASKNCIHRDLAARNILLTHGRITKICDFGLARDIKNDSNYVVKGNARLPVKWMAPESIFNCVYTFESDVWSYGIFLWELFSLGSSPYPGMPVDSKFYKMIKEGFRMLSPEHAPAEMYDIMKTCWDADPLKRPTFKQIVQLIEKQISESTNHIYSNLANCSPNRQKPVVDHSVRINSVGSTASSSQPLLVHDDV

Structure (SMILES) | pIC50 (FLT3 [1]) | per_control_1000nM TAF1(2) (TAF1(2)) | per_control_10000nM TAF1(2) (TAF1(2)) | per_control_1000nM FLT3 (FLT3 [2]) | per_control_10000nM FLT3 (FLT3 [2]) | per_control_1000nM FLT3(ITD) (FLT3(ITD)) | per_control_10000nM FLT3(ITD) (FLT3(ITD)) | per_control_1000nM FLT3(ITD,D835V) (FLT3(ITD,D835V)) | per_control_10000nM FLT3(ITD,D835V) (FLT3(ITD,D835V)) | per_control_1000nM FLT3(ITD,F691L) (FLT3(ITD,F691L)) | per_control_10000nM FLT3(ITD,F691L) (FLT3(ITD,F691L)) | per_control_1000nM KIT (KIT) | per_control_10000nM KIT (KIT) | per_control_1000nM PDGFRB (PDGFRB) | per_control_10000nM PDGFRB (PDGFRB) | pIC50 (DU4475 cells; [3]) | pIC50 (IGROV1 cells; [4]) | further results
COc1ccc(-c2cc(NC(=O)c3ccc(C(C)(C)C)cc3)[nH]n2)cc1 [Compound 3i-1103] | > 6.00 | 21 percent control | 2.6 percent control | 0 percent control | 0 percent control | 1.2 percent control | 2.1 percent control | 42 percent control | 6 percent control | 38 percent control | 9.4 percent control | 0 percent control | 0 percent control | 0 percent control | 0 percent control | 4.74 and 4.72 | < 4.52 | pIC50 (TAF1(2) bromodomain; kdELECT, read-out: TAF1(2) IC50): 6.32; CTG normalized_to_DMSO (DU4475 cells; DU4475, exp 1, 0.3 µM): 1.0025; CTG normalized_to_DMSO (DU4475 cells; DU4475, exp 1, 1 µM): 0.9677; CTG normalized_to_DMSO (DU4475 cells; DU4475, exp 1, 3 µM): 0.8934; CTG normalized_to_DMSO (DU4475 cells; DU4475, exp 1, 10 µM): 0.6779; CTG normalized_to_DMSO (DU4475 cells; DU4475, exp 1, 30 µM): 0.07396; pIC50 (DU4475 cells; Homo sapiens, DU-4475, 72 h, mean of n = 3 independent experiments, read-out: DU4475 IC50 (CellTiter Glo)): 4.70; pIC50 (DU4475 cells; Homo sapiens, DU-4475, 72 h, one independent experiment per value, read-out: DU4475 IC50, individual dose-response curve (CellTiter Glo)): 4.66; pIC50 (IGROV1 cells; Homo sapiens, IGROV-1, 72 h, one independent experiment per value, read-out: IGROV1 IC50, individual dose-response curve (CellTiter Glo)): 4.75
CC(C)(C)c1ccc(C(=O)Nc2cc(-c3ccccc3)n[nH]2)cc1 [Compound 3i-1247, 4-(tert-butyl)-N-(3-phenyl-1H-pyrazol-5-yl)benzamide] | 8.82 | 97 percent control | 78 percent control | 12 percent control | 0 percent control | 3.2 percent control | 12 percent control | 11 percent control | 0.3 percent control | 9.7 percent control | 0.1 percent control | 0 percent control | 0 percent control | 0 percent control | 0 percent control | 5.60 and 5.54 and 5.57 | 5.46 and 5.42 and 5.60 | pIC50 (TAF1(2) bromodomain; TAF1(2) IC50, kdELECT): < 5.00; activity in DU4475 cells (DU4475 cells; compared to dual FLT3/TAF1(2) inhibitors 3i-1103, 3i-1246, 3i-1248): superior activity; pIC50 (HDQP1 cells): < 4.52; pIC50 (IGROV1 cells; 72h, mean of n = 3 independent experiments, read-out: IGROV1 IC50 (CellTiter Glo)): 5.48
